From PMC5430874 (Scientific Reports, 2017)
Residue numbers refer to the chain shown, from its start.

Key:
Assay type in all cases: cell-based
GPR139 L87F2x64 = biological target: T1, GPR139 L87F2x64 (Homo sapiens, UniProt Q6DWJ6, L87F); assay: Fluo-4 Ca2+-assay, GPR139 mutant L87F
T1 construct: mGluR5 signal peptide (N); expressed in transfected cells; host or cells: HEK293
T1 sequence (Q6DWJ6 2-353 L87F limits assumed): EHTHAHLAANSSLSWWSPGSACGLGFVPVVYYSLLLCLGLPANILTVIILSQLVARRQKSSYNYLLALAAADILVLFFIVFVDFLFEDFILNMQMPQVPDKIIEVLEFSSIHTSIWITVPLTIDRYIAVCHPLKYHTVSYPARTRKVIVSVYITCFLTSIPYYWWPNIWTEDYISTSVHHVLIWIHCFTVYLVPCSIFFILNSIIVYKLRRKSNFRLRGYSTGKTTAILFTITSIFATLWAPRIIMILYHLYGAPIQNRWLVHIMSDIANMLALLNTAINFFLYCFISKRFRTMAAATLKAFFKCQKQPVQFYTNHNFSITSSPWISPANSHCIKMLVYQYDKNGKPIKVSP
Text: (§1) To study the influence of specific amino acids in the predicted binding pocket on receptor function, the desired mutations were introduced into an N-terminally c-myc-tagged wild type human GPR139 (NM_001002911.3) in the pEGFP-N1 vector (BD Biosciences)[32], [33]. As previously described, these plasmids carry the signal peptide of mGluR5 to promote cell surface expression followed by a c-myc epitope to enable detection of total and surface expression by ELISA, followed by an engineered MluI and NotI site for easy insertion of the receptor of interest. Furthermore, the start-codon in the GPR139 sequence was deleted to ensure c-myc-tagging. […]
(§2) The Ca^2+ measurements were preformed using the Fluo-4 NW Calcium Assay Kit (Invitrogen, Molecular Probes, F36206) as previously described. […] Intracellular calcium changes were recorded as indicated on either a NOVOstar (BMG Labtech) at 37 °C with an excitation filter of 485 nm and an emission filters 520 nm or a FlexStation 3 Benchtop Multi-Mode Microplate Reader (Molecular Devices) at 37 °C with an excitation wavelength of 485 nm and emission of 525 nm.
(§3) All pharmacological data have been analyzed by using Prism 6.0 (GraphPad Software Inc., San Diego). […] Changes in potency (pEC50) and span of myc-GPR139(WT) in comparison to untagged GPR139(WT) was statistically analyzed with a paired t-test and significance was accepted at p < 0.05. […]

[1] = biological target: T2, GPR139 E108A3x29 +E105A3x32 (Homo sapiens, UniProt Q6DWJ6, E105A/E108A); assay: Fluo-4 Ca2+-assay, GPR139 double mutant E105A_E108A
T2 construct: mGluR5 signal peptide (N); expressed in transfected cells; host or cells: HEK293
T2 sequence (Q6DWJ6 2-353 E105A/E108A limits assumed): T1 sequence (Q6DWJ6 2-353 L87F limits assumed) with F86L, E104A, E107A
Text: as §1, §2, §3

GPR139 H113A3x37 = biological target: T3, GPR139 H113A3x37 (Homo sapiens, UniProt Q6DWJ6, H113A); assay: Fluo-4 Ca2+-assay, GPR139 mutant H113A
T3 construct: mGluR5 signal peptide (N); expressed in transfected cells; host or cells: HEK293
T3 sequence (Q6DWJ6 2-353 H113A limits assumed): T1 sequence (Q6DWJ6 2-353 L87F limits assumed) with F86L, H112A
Text: as §1, §2, §3

COc1cc(OC)cc(C(=O)NNC(=O)Nc2cccc3ccccc23)c1 [Compound 1a]
EC50 (GPR139 L87F2x64; L87F mutant): 0.427 µM
Emax (GPR139 L87F2x64; L87F, normalized to buffer (0%) and 8 µM 1a (100%)): 97 ± 14%
EC50 [1]: 0.2 µM
Emax ([1]; normalized to buffer (0%) and 8 µM 1a (100%)): 196 ± 25%
EC50 (GPR139 H113A3x37; H113A mutant): 0.851 µM
Emax (GPR139 H113A3x37; H113A, normalized to buffer (0%) and 8 µM 1a (100%)): 97 ± 9%
